Measurements from patent publication US20150307520A1, “NOVEL HETEROARYL AND HETEROCYCLE COMPOUNDS, COMPOSITIONS AND METHODS THEREOF” (HUTCHISON MEDIPHARMA LIMITED, priority 2012, published 2015).

Experiments:
Format in all cases: biochemical
[1] = biological target: p110γ (Homo sapiens, UniProt P48736); experiment: Transcreener KINASE Assay, kinase inhibition of p110γ; conditions: for PI3Kγ IH % @ 1 uM: 1 uM test compound; for IC50: read-out: PI3Kγ IC50
Outline: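 Kinase activity is monitored as ADP formation, detected by competitive fluorescence polarization with a far-red tracer. Recombinant isoform complexes react for 80 min at room temperature before a 60 min detection step. IC50 values come from fitted dose-response data.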

[2] = biological target: p110β/p85α (Homo sapiens, UniProt P42338); experiment: Transcreener KINASE Assay, kinase inhibition of p110β/p85α; conditions: for PI3Kβ IH % @ 1 uM: 1 uM test compound; for IC50: read-out: PI3Kβ IC50
Sequence of p110β/p85α (P42338 whole entry): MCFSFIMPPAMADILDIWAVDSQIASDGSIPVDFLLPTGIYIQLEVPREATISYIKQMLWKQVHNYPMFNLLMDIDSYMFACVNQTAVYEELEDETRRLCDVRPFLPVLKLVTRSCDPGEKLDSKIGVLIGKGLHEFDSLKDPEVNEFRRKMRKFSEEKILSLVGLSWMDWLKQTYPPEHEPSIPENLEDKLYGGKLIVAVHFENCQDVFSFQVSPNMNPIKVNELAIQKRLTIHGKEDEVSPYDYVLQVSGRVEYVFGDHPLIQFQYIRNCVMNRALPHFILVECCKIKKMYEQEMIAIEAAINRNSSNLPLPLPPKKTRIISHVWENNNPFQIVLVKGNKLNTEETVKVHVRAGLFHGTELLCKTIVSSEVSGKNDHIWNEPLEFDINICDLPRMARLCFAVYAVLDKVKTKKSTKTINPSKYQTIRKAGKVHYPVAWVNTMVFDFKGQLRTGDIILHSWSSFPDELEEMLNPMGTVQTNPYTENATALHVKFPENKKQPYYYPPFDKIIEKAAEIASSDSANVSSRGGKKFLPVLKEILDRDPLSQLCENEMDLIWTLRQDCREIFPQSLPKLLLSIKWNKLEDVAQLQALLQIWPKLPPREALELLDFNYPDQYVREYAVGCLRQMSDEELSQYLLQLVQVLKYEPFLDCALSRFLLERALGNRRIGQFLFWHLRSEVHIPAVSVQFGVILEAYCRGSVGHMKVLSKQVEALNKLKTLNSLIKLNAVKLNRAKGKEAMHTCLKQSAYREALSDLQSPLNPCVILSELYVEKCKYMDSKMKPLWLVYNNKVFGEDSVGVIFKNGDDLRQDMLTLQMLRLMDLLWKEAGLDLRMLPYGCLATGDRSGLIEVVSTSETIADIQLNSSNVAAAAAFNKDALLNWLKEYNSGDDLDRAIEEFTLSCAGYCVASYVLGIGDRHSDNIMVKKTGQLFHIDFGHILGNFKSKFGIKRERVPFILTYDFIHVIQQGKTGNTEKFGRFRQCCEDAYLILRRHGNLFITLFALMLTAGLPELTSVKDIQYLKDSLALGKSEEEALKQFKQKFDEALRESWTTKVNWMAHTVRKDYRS
Sequence of p110β/p85α (P27986 2-724 partner): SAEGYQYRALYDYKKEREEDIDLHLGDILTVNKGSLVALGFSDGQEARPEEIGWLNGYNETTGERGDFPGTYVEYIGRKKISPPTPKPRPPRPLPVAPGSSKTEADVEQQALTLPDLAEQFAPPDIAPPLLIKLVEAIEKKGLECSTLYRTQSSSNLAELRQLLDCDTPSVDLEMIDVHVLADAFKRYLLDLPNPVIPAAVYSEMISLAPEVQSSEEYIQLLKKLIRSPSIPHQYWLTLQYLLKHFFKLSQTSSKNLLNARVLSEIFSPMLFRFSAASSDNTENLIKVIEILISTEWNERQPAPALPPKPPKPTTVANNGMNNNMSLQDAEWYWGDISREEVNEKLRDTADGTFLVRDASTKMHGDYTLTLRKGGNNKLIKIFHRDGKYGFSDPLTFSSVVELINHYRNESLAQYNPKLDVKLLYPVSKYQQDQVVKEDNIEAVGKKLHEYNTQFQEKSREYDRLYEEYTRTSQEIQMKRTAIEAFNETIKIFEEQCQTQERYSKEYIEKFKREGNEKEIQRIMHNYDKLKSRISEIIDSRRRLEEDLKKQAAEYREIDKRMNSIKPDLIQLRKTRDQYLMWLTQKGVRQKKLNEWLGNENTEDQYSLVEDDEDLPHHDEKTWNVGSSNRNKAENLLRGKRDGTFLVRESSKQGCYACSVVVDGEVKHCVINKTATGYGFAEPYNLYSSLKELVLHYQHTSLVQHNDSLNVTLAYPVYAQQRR
Outline: (§1)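 Recombinant PI3K/p85α heterodimers were incubated with compound (2% DMSO final) for 80 min at room temperature in 50 mM HEPES, 100 mM NaCl, 1 mM EGTA, 0.03% CHAPS, 3 mM MgCl2, 1 mM DTT, with substrate added as a 30 uM PIP2/10 uM ATP mix. ADP was detected by competitive fluorescence polarization immunoassay.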

[3] = biological target: p110δ/p85α (Homo sapiens, UniProt O00329); experiment: Transcreener KINASE Assay, kinase inhibition of p110δ/p85α; conditions: for PI3Kδ IH % @ 1 uM: 1 uM test compound; for IC50: read-out: PI3Kδ IC50
Sequence of p110δ/p85α (O00329 whole entry): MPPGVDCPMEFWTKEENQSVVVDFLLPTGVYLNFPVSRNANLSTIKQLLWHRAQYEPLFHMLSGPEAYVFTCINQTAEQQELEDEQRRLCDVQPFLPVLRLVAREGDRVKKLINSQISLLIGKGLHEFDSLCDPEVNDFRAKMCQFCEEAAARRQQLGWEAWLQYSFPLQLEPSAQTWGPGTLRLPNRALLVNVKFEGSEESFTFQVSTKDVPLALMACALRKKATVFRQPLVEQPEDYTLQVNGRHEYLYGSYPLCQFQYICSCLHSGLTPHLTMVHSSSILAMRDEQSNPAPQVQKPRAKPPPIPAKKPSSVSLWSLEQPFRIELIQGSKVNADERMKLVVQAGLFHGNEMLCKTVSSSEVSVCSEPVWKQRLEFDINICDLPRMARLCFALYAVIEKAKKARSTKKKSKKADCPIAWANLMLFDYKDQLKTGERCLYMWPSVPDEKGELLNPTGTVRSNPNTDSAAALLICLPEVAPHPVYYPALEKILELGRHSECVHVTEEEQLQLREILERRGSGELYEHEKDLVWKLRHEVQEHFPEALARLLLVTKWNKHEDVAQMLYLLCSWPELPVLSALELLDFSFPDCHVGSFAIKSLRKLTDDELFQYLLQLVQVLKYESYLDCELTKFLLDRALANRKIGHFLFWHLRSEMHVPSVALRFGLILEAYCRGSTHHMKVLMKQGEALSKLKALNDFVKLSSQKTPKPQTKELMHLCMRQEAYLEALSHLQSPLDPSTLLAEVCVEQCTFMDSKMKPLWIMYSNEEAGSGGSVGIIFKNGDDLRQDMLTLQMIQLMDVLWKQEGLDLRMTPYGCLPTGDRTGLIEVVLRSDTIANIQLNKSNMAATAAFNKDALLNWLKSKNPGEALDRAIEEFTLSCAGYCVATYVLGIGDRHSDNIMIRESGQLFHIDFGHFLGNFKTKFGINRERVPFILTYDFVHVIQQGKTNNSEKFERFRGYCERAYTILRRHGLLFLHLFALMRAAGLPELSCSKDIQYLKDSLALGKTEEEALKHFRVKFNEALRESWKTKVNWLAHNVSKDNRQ
Sequence of p110δ/p85α (P27986 whole entry partner): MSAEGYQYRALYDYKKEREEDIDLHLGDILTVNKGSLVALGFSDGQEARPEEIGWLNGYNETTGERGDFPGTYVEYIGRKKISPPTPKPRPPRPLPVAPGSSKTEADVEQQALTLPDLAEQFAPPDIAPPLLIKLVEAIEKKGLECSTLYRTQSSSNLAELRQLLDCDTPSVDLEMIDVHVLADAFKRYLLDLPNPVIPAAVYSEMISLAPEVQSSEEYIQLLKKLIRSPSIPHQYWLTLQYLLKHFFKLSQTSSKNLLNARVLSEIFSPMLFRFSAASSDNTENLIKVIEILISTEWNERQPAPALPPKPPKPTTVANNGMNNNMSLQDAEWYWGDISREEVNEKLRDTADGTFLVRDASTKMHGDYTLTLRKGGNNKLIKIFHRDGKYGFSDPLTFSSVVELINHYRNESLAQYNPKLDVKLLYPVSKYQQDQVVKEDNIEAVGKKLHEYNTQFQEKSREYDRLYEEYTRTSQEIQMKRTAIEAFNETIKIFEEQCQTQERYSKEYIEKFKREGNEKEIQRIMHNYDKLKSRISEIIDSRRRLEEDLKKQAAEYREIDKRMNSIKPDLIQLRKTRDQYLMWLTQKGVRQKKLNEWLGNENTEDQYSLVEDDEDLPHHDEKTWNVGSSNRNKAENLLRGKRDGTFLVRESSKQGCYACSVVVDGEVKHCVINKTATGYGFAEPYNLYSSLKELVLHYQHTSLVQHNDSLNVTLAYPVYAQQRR
Outline: as §1

[4] = biological target: p110α/p85α (Homo sapiens, UniProt P42336); experiment: Transcreener KINASE Assay, kinase inhibition of p110α/p85α; conditions: for PI3Kα IH % @ 1 uM: 1 uM test compound
Procedure: PI3K kinases including p110α/p85α, p110δ/p85α and p110γ are purchased from Invitrogen, and p110β/p85α is from Millipore.
Primary screening data and IC50 values are measured using Transcreener™ KINASE Assay (Bellbrook, Catalog #3003-10K). […] It is a universal, homogenous, high throughput screening (HTS) technology using a far-red, competitive fluorescence polarization immunoassay based on the detection of ADP to monitor the activity of enzymes that catalyze group transfer reactions. Briefly, the Transcreener KINASE Assay is designed as a simple two-part, endpoint assay.
In the first step, the 25 ul kinase reaction is performed by preparing a reaction mixture containing 5 ul test compound (2% DMSO final concentration), 10 ul kinase, buffer (50 mM HEPES, 100 mM NaCl, 1 mM EGTA, 0.03% CHAPS, 3 mM MgCl2, and freshly supplemented 1 mM DTT), and 10 ul 30 uM PIP2/10 uM ATP. The plate is sealed and incubated for 80 min at room temperature. Next, 25 ul ADP detection mix is added per well. The plate is sealed again and incubated for 60 min at room temperature, and then measure fluorescence polarization by Tecan Infinite F500 Reader.
Data is analyzed and IC50s are generated using the add-in software for Microsoft Excel, Xlfit™ (version 2.0). IH %=(ADP amount under 2% DMSO-ADP amount under test compound)/ADP amount under 2% DMSO.

Sequence of p110γ (P48736 whole entry, canonical isoform): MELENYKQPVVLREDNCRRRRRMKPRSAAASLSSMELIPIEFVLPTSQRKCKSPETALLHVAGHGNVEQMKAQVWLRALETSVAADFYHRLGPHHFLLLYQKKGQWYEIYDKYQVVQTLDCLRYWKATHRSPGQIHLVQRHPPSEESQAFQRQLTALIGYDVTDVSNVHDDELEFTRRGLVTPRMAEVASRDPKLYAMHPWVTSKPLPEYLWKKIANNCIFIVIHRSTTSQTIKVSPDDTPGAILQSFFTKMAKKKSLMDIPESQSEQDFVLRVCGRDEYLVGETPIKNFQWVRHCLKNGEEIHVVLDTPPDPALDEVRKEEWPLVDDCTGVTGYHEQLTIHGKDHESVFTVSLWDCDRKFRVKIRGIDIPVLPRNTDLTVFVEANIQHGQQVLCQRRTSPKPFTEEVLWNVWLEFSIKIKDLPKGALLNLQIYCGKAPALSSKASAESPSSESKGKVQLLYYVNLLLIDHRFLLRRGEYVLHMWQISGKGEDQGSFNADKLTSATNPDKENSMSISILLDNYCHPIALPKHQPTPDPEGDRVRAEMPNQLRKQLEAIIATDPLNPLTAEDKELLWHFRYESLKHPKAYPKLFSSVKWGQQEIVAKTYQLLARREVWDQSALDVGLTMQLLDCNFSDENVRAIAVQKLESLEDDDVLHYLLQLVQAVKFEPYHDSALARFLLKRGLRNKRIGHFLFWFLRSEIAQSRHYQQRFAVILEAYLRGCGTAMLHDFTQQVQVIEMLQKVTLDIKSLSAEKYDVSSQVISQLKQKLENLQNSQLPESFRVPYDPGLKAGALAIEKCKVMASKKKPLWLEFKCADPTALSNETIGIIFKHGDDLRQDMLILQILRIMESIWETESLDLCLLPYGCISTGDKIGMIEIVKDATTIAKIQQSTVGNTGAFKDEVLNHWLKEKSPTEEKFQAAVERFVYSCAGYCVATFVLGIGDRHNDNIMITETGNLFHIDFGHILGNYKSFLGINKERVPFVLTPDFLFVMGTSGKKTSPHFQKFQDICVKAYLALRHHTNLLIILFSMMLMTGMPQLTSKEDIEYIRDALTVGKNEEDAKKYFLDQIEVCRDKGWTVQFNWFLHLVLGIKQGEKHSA

PI3Kγ IH % @ 1 uM [1] [%] | PI3Kβ IH % @ 1 uM [2] [%] | PI3Kδ IH % @ 1 uM [3] [%] | PI3Kα IH % @ 1 uM [4] [%] | IC50 [2] [nM] | IC50 [3] [nM] | IC50 [1] [nM] | IC50 ([4]; read-out: PI3Kα IC50) [nM] | SMILES
58.6 | 28.0 | 91.5 | −10.6 | – | – | – | – | N#Cc1c[nH]c2ncnc(N3CC[C@H]3c3nn4cccc4c(=O)n3-c3ccccc3)c12 [Compound 6]
16.6 | 17.7 | 50.4 | −18.6 | – | – | – | – | O=c1c2cccn2nc([C@@H]2CCN2c2ncnc3[nH]cnc23)n1-c1ccccc1 [Compound 7]
98.6 | 93.7 | >100 | 80.9 | 34 | 1 | – | – | N#Cc1c[nH]c2ncnc(N3CCC[C@H]3c3nn4ccc(Cl)c4c(=O)n3-c3ccccc3)c12 [Compound 25]
93.3 | 88.7 | >100 | 20.3 | 91 | 2 | – | – | O=c1c2c(Cl)ccn2nc([C@@H]2CCCN2c2ncnc3[nH]cnc23)n1-c1ccccc1 [Compound 26]
92.2 | 49.9 | >100 | −0.3 | – | 14 | 32 | – | N#Cc1c[nH]c2ncnc(N3CC[C@H]3c3nn4ccc(Cl)c4c(=O)n3-c3ccccc3)c12 [Compound 28]
72.5 | 18.5 | >100 | −1.5 | – | 84 | – | – | O=c1c2c(Cl)ccn2nc([C@@H]2CCN2c2ncnc3[nH]cnc23)n1-c1ccccc1 [Compound 29]
74.1 | 51.3 | >100 | −20.5 | – | 9 | 94 | – | Nc1ncnc(N2CC[C@H]2c2nn3ccc(Cl)c3c(=O)n2-c2ccccc2)c1Cl [Compound 30]
81.5 | 35.3 | >100 | −17.7 | – | 16 | 153 | – | N#Cc1c(N)ncnc1N1CC[C@H]1c1nn2ccc(Cl)c2c(=O)n1-c1ccccc1 [Compound 31]
94.8 | 96.7 | >100 | 54.5 | 13 | 1 | 8 | – | N#Cc1c(N)ncnc1N1CCC[C@H]1c1nn2ccc(Cl)c2c(=O)n1-c1ccccc1 [Compound 32]
84.6 | 12.4 | 96.8 | −2.5 | – | 29 | 203 | – | COc1cccc(-n2c([C@@H]3CCN3c3ncnc4[nH]cc(C#N)c34)nn3ccc(Cl)c3c2=O)c1 [Compound 34]
61.2 | 24.7 | 94.1 | −6.6 | – | 57 | – | – | COc1cccc(-n2c([C@@H]3CCN3c3ncnc(N)c3C#N)nn3ccc(Cl)c3c2=O)c1 [Compound 35]
90.8 | 60.9 | 99.1 | 6.4 | – | – | 35 | – | COc1cccc(-n2c([C@@H]3CCCN3c3ncnc4[nH]cnc34)nn3ccc(Cl)c3c2=O)c1 [Compound 36]
93.5 | 54.8 | – | −3.3 | – | 3 | – | – | O=c1c2c(Cl)ccn2nc([C@@H]2CCCN2c2ncnc3[nH]cnc23)n1-c1cccc(F)c1 [Compound 38]
91.2 | 79.8 | >100 | 71.8 | 186 | – | 5 | – | Cc1ccn2nc([C@@H]3CCCN3c3ncnc4[nH]cc(C#N)c34)n(-c3ccccc3)c(=O)c12 [Compound 42]
96.6 | 66.0 | >100 | 35.1 | – | 2 | 19 | – | Cc1ccn2nc([C@@H]3CCCN3c3ncnc4[nH]cnc34)n(-c3ccccc3)c(=O)c12 [Compound 43]
95.2 | 74.3 | >100 | 46.7 | 302 | 1 | 5 | – | Cc1ccn2nc([C@@H]3CCCN3c3nc(N)nc4[nH]cnc34)n(-c3ccccc3)c(=O)c12 [Compound 44]
>100 | 42.2 | 95.4 | 7.1 | – | 39 | 39 | – | N#Cc1c[nH]c2ncnc(N3CCC[C@H]3c3nn4ccc(Cl)c4c(=O)n3Cc3ccccc3)c12 [Compound 62]
89.9 | 78.8 | 98.9 | 32.6 | 251 | 3 | 41 | – | CC(C)Cn1c([C@@H]2CCCN2c2ncnc3[nH]cc(C#N)c23)nn2ccc(Cl)c2c1=O [Compound 64]
>100 | 50.6 | >100 | 52.6 | – | 14 | 78 | – | N#Cc1c[nH]c2ncnc(N3CCC[C@H]3c3nn4ccc(Cl)c4c(=O)n3Cc3ccccn3)c12 [Compound 65]
>100 | 63.6 | >100 | 75.6 | – | 12 | 14 | – | N#Cc1c[nH]c2ncnc(N3CCC[C@H]3c3nn4ccc(Cl)c4c(=O)n3Cc3cccnc3)c12 [Compound 66]
68.8 | 57.8 | 99.9 | 13.0 | – | 9 | – | – | N#Cc1c(N)ncnc1N1CCC[C@H]1c1nn2ccc(Cl)c2c(=O)n1Cc1ccccn1 [Compound 69]
– | 38.6 | 99.4 | – | 644 | 6 | – | 2940 | CC(=O)c1cnc(N)nc1N1CC[C@H]1c1nn2ccc(Cl)c2c(=O)n1-c1ccccc1 [Compound 299]
91.1 | 67.6 | >100 | – | – | 6 | 11 | – | Cc1nc(N)nc(N2CC[C@H]2c2nn3ccc(C#N)c3c(=O)n2-c2ccccc2)c1C#N [Compound 497, (S)-2-(1-(2-amino-5-cyano-6-methylpyrimidin-4-yl)azetidin-2-yl)-4-oxo-3-phenyl-3,4-dihydropyrrolo[2,1-f][1,2,4]triazine-5-carbonitrile]
96.0 | 86.1 | >100 | – | 84 | 2 | 5 | – | Cc1nc(N)nc(N2C[C@H](C)[C@H]2c2nn3ccc(C#N)c3c(=O)n2-c2ccccc2)c1C#N [Compound 499]
98.7 | 71.5 | 95.4 | – | 674 | 6 | 7 | – | CC(=O)c1cnc(N)nc1N1C[C@H](C)[C@H]1c1nn2ccc(C#N)c2c(=O)n1-c1ccccc1 [Compound 500]
>100 | 24.0 | 91.8 | – | – | 78 | – | – | C[C@H]1CN(c2nc(N)ncc2C#N)[C@@H]1c1nn2ccc(C#N)c2c(=O)n1-c1ccccc1 [Compound 501]
66.4 | 33.6 | 66.2 | – | – | – | – | – | Cc1nc(N)nc(N2CC[C@H]2c2nn3c(C)cc(Cl)c3c(=O)n2-c2ccccc2)c1C#N [Compound 502]
63.0 | 6.2 | 49.2 | – | – | – | – | – | CC(=O)c1cnc(N)nc1N1CC[C@H]1c1nn2c(C)cc(Cl)c2c(=O)n1-c1ccccc1 [Compound 503]
>100 | 75.6 | >100 | – | 121 | 2 | 2 | – | C[C@H]1CN(c2nc(N)nc(N)c2C#N)C1c1nn2ccc(Cl)c2c(=O)n1-c1cccc(F)c1 (stereo partly shown) [Compound 504]
